Data from the supplement of paper PMC8617591.

Key:
[1] = tested on: Mycobacterium tuberculosis Erdman (autoluminescent); test: total FIC90 (Loewe) at 90% inhibition, three-drug combination (log2); higher = more antagonistic
Procedure: (§1)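 DiaMOND equipotent three-drug combination dose responses (10 doses, 1.5- or 2-fold spacing, centred on IC90) against autoluminescent M. tuberculosis Erdman in 8 in vitro models. Read-out is OD600, or luminescence for the intracellular and dormancy models, normalised to untreated wells. Hill-fit Einf, AUC25 and GRinf are potency metrics; FIC50 and FIC90 are total Loewe fractional inhibitory concentrations as log2 (negative = synergy).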

[2] = tested on: Mycobacterium tuberculosis Erdman (autoluminescent); test: Einf, fitted maximum growth inhibition of three-drug combination (fraction); higher = stronger maximal inhibition
Procedure: as §1

[3] = tested on: Mycobacterium tuberculosis Erdman (autoluminescent); test: AUC25, normalised area under dose response up to IC25 (three-drug combination) (fraction (0-1)); higher = more potent at low dose
Procedure: as §1

[4] = tested on: Mycobacterium tuberculosis Erdman (autoluminescent); test: total FIC50 (Loewe) at 50% inhibition, three-drug combination (log2); higher = more antagonistic
Procedure: as §1

[5] = tested on: Mycobacterium tuberculosis Erdman (autoluminescent); test: GRinf, maximum normalised growth rate inhibition (three-drug combination) (unitless (-1 to 1)); higher = less effect (negative = killing)
Procedure: as §1

CC[C@@H](CO)NCCN[C@@H](CC)CO [ethambutol] + CC(=O)NC[C@H]1CN(c2ccc(N3CCOCC3)c(F)c2)C(=O)O1 [linezolid] + COc1c(N2C[C@@H]3CCCN[C@@H]3C2)c(F)cc2c(=O)c(C(=O)O)cn(C3CC3)c12 [moxifloxacin]
Settings | AUC25, [3] | Einf, [2] | GRinf, [5] | total FIC50, [4] | total FIC90, [1]
in vitro model: acidic pH 5.7, time point: constant (~7 days, model-specific) | 0.121 | 0.782 | -0.587 | 0.0272 | –
in vitro model: acidic pH 5.7, time point: terminal (~4-5 doublings, model-specific) | 0.101 | 0.956 | -0.36 | 1.25 | 0.487
in vitro model: intracellular J774, time point: constant = terminal | – | 0.966 | -0.388 | – | -0.395

Settings | AUC25, [3] | Einf, [2] | GRinf, [5] | total FIC50, [4] | total FIC90, [1]
in vitro model: butyrate, time point: constant (~7 days, model-specific) | 0.0929 | 0.887 | 0.105 | 0.436 | –
in vitro model: butyrate, time point: terminal (~4-5 doublings, model-specific) | 0.0678 | 0.938 | 0.104 | 0.501 | 0.397
in vitro model: cholesterol 0.05 mM, time point: constant (~7 days, model-specific) | 0.149 | 0.725 | -0.165 | -0.0271 | –
in vitro model: cholesterol 0.05 mM, time point: terminal (~4-5 doublings, model-specific) | 0.162 | 0.932 | -0.548 | 7.63 | –
in vitro model: cholesterol-high 0.2 mM, time point: constant (~7 days, model-specific) | 0.111 | 0.942 | -0.318 | 0.596 | –
in vitro model: cholesterol-high 0.2 mM, time point: terminal (~4-5 doublings, model-specific) | 0.109 | 1 | -0.97 | 0.421 | 1
in vitro model: dormancy (butyrate + nitrate, low O2), time point: constant (~7 days, model-specific) | 0.0953 | 0.849 | 0.414 | 0.25 | –
in vitro model: dormancy (butyrate + nitrate, low O2), time point: terminal (~4-5 doublings, model-specific) | 0.0816 | 0.967 | -0.0859 | -0.563 | 0.576
in vitro model: standard 7H9 glycerol, time point: constant = terminal | 0.0554 | 0.958 | -0.3 | 0.808 | 0.685
in vitro model: valerate, time point: constant (~7 days, model-specific) | 0.0828 | 0.872 | 0.0258 | 0.39 | –
in vitro model: valerate, time point: terminal (~4-5 doublings, model-specific) | 0.0583 | 0.938 | -0.0184 | 0.654 | 0.845

CC[C@@H](CO)NCCN[C@@H](CC)CO [ethambutol] + CC(=O)NC[C@H]1CN(c2ccc(N3CCOCC3)c(F)c2)C(=O)O1 [linezolid] + NC(=O)c1cnccn1 [pyrazinamide]
Settings | AUC25, [3] | Einf, [2] | GRinf, [5] | total FIC50, [4] | total FIC90, [1]
in vitro model: acidic pH 5.7, time point: constant (~7 days, model-specific) | 0.087 | 0.835 | -0.314 | 0.0711 | –
in vitro model: acidic pH 5.7, time point: terminal (~4-5 doublings, model-specific) | 0.0645 | 0.963 | -0.245 | 1.01 | -1.27
in vitro model: intracellular J774, time point: constant = terminal | – | 0.966 | -0.526 | – | 0.433

Settings | AUC25, [3] | Einf, [2] | GRinf, [5] | total FIC50, [4] | total FIC90, [1]
in vitro model: butyrate, time point: constant (~7 days, model-specific) | 0.114 | 0.891 | 0.0745 | 0.217 | –
in vitro model: butyrate, time point: terminal (~4-5 doublings, model-specific) | 0.0865 | 0.932 | 0.0716 | 0.189 | 0.638
in vitro model: cholesterol 0.05 mM, time point: constant (~7 days, model-specific) | 0.16 | 0.785 | -0.0274 | – | –
in vitro model: cholesterol 0.05 mM, time point: terminal (~4-5 doublings, model-specific) | 0.168 | 0.977 | -0.696 | -1.33 | –
in vitro model: cholesterol-high 0.2 mM, time point: constant (~7 days, model-specific) | 0.101 | 0.944 | -0.667 | 0.563 | –
in vitro model: cholesterol-high 0.2 mM, time point: terminal (~4-5 doublings, model-specific) | 0.11 | 1 | -0.959 | 0.303 | 0.985
in vitro model: dormancy (butyrate + nitrate, low O2), time point: constant (~7 days, model-specific) | 0.107 | 0.75 | 0.388 | 0.819 | –
in vitro model: dormancy (butyrate + nitrate, low O2), time point: terminal (~4-5 doublings, model-specific) | 0.102 | 0.964 | 0.0543 | 0.154 | 0.627
in vitro model: standard 7H9 glycerol, time point: constant = terminal | 0.071 | 0.86 | 0.221 | 1.2 | –
in vitro model: valerate, time point: constant (~7 days, model-specific) | 0.0934 | 0.864 | 0.000637 | 0.255 | –
in vitro model: valerate, time point: terminal (~4-5 doublings, model-specific) | 0.0462 | 0.909 | 0.102 | 0.697 | –

CC[C@@H](CO)NCCN[C@@H](CC)CO [ethambutol] + CC(=O)NC[C@H]1CN(c2ccc(N3CCOCC3)c(F)c2)C(=O)O1 [linezolid] + O=[N+]([O-])c1cn2c(n1)OC[C@@H](OCc1ccc(OC(F)(F)F)cc1)C2 [pretomanid]
Settings | AUC25, [3] | Einf, [2] | GRinf, [5] | total FIC50, [4] | total FIC90, [1]
in vitro model: acidic pH 5.7, time point: constant (~7 days, model-specific) | 0.134 | 0.896 | -0.388 | 0.236 | –
in vitro model: acidic pH 5.7, time point: terminal (~4-5 doublings, model-specific) | 0.0878 | 0.967 | -0.322 | 1.28 | 1.01
in vitro model: intracellular J774, time point: constant = terminal | – | 0.975 | -0.561 | – | 0.0435

Settings | AUC25, [3] | Einf, [2] | GRinf, [5] | total FIC50, [4] | total FIC90, [1]
in vitro model: butyrate, time point: constant (~7 days, model-specific) | 0.0842 | 0.911 | 0.0181 | 0.478 | –
in vitro model: butyrate, time point: terminal (~4-5 doublings, model-specific) | 0.0626 | 0.944 | 0.0489 | 0.404 | 0.144
in vitro model: cholesterol 0.05 mM, time point: constant (~7 days, model-specific) | 0.12 | 0.731 | -0.14 | -0.149 | –
in vitro model: cholesterol 0.05 mM, time point: terminal (~4-5 doublings, model-specific) | 0.146 | 0.921 | -0.207 | -1.06 | –
in vitro model: cholesterol-high 0.2 mM, time point: constant (~7 days, model-specific) | 0.0978 | 0.905 | -0.175 | 0.567 | –
in vitro model: cholesterol-high 0.2 mM, time point: terminal (~4-5 doublings, model-specific) | 0.104 | 1 | -0.831 | 0.339 | 0.921
in vitro model: dormancy (butyrate + nitrate, low O2), time point: constant (~7 days, model-specific) | 0.142 | 0.891 | -0.209 | 1.03 | –
in vitro model: dormancy (butyrate + nitrate, low O2), time point: terminal (~4-5 doublings, model-specific) | 0.0963 | 0.981 | -0.881 | -0.0848 | -0.19
in vitro model: standard 7H9 glycerol, time point: constant = terminal | 0.0762 | 0.904 | 0.0621 | 0.648 | –
in vitro model: valerate, time point: constant (~7 days, model-specific) | 0.153 | 0.901 | -0.16 | -0.171 | –
in vitro model: valerate, time point: terminal (~4-5 doublings, model-specific) | 0.115 | 0.923 | -0.0362 | -0.419 | 2.13
